Laboratory results reported in ChEMBL document CHEMBL1131907, “Novel synthetic oleanane triterpenoids: a series of highly active inhibitors of nitric oxide production in mouse macrophages” (Bioorg Med Chem Lett, 1999).

Species on record: Mus musculus
Test: Inhibitory activity against production of nitric oxide (NO) induced by interferon-gamma (IFN-gamma) in mouse macrophages above 1 uM concentration; Toxic; call rule not given here
Type: functional, organism-based
In the case of `COC(=O)[C@]12CCC(C)(C)CC1C1=CC[C@@H]3[C@@]4(C)C=C(C=O)C(=O)C(C)(C)[C@@H]4CC[C@@]3(C)[C@]1(C)CC2` (some centres undefined), the IC50 is reported as “Toxic”. For `CC1(C)CC[C@]2(C(=O)O)CC[C@]3(C)C(=CC[C@@H]4[C@@]5(C)C=C(C=O)C(=O)C(C)(C)[C@@H]5CC[C@]43C)C2C1` (some centres undefined), the IC50 was “Toxic”. With `COC(=O)C1=C[C@]2(C)C3=CC(=O)C4C5CC(C)(C)CC[C@]5(C(=O)OC)CC[C@@]4(C)[C@]3(C)CC[C@H]2C(C)(C)C1=O` (some centres undefined) the IC50 was “Toxic”.

Species on record: Mus musculus
Test: Inhibitory activity against production of nitric oxide (NO) induced by interferon-gamma (IFN-gamma) in mouse macrophages below 1 uM concentration; Inactive
Type: functional, organism-based
`COC(=O)[C@]12CCC(C)(C)CC1C1=CC[C@@H]3[C@@]4(C)C=C(C=O)C(=O)C(C)(C)[C@@H]4CC[C@@]3(C)[C@]1(C)CC2` (some centres undefined) was tested, and the IC50 was “Not Active”. `CC1(C)CC[C@]2(C(=O)O)CC[C@]3(C)C(=CC[C@@H]4[C@@]5(C)C=C(C=O)C(=O)C(C)(C)[C@@H]5CC[C@]43C)C2C1` (some centres undefined) was tested, and the IC50 was “Not Active”. In the case of `COC(=O)C1=C[C@]2(C)C3=CC(=O)C4C5CC(C)(C)CC[C@]5(C(=O)OC)CC[C@@]4(C)[C@]3(C)CC[C@H]2C(C)(C)C1=O` (some centres undefined), the IC50 is reported as “Not Active”.

Species on record: Mus musculus
Test: Inhibitory activity against production of nitric oxide induced by interferon-gamma in mouse macrophages
Type: functional, organism-based
`COC(=O)[C@]12CCC(C)(C)CC1C1=CC[C@@H]3[C@@]4(C)C=C(C(=O)O)C(=O)C(C)(C)[C@@H]4CC[C@@]3(C)[C@]1(C)CC2` (some centres undefined) showed an IC50 of 800 nM. `COC(=O)[C@]12CCC(C)(C)CC1C1=CC[C@@H]3[C@@]4(C)C=C(Br)C(=O)C(C)(C)[C@@H]4CC[C@@]3(C)[C@]1(C)CC2` (some centres undefined) was tested, and the IC50 was > 40000 nM. In the case of `COC(=O)[C@]12CCC(C)(C)CC1C1=CC[C@@H]3[C@@]4(C)C=C(C(N)=O)C(=O)C(C)(C)[C@@H]4CC[C@@]3(C)[C@]1(C)CC2` (some centres undefined), the IC50 is reported as 14000 nM. For `CC1(C)CC[C@]2(C(=O)O)CC[C@]3(C)C(=CC[C@@H]4[C@@]5(C)CC[C@H](O)C(C)(C)[C@@H]5CC[C@]43C)[C@@H]2C1` [OLEANOLIC_ACID], the IC50 was > 40000 nM. Molecule `C[C@@H]1C[C@H]2[C@@H]3CCC4=CC(=O)C=C[C@]4(C)[C@@]3(F)[C@@H](O)C[C@]2(C)[C@@]1(O)C(=O)CO` [DEXAMETHASONE] has an IC50 of 0.1 nM. Molecule `CC1(C)CC[C@]2(C(=O)O)CC[C@]3(C)[C@H](C(=O)C=C4[C@@]5(C)C=C(C#N)C(=O)C(C)(C)[C@@H]5CC[C@]43C)[C@@H]2C1` [BARDOXOLONE] has an IC50 of 0.2 nM. Work on `COC(=O)C1=C[C@]2(C)[C@H]3CC=C4C5CC(C)(C)CC[C@]5(C(=O)O)CC[C@@]4(C)[C@]3(C)CC[C@H]2C(C)(C)C1=O` (some centres undefined) yielded an IC50 of 2200 nM. With `CC1(C)CC[C@]2(C(=O)O)CC[C@]3(C)C(=CC(=O)[C@@H]4[C@@]5(C)C=C(C#N)C(=O)C(C)(C)[C@@H]5CC[C@]43C)C2C1` (some centres undefined) the IC50 was 40 nM. `COC(=O)[C@]12CCC(C)(C)CC1C1=CC[C@@H]3[C@@]4(C)C=C(Cl)C(=O)C(C)(C)[C@@H]4CC[C@@]3(C)[C@]1(C)CC2` (some centres undefined) was tested, and the IC50 was > 40000 nM. Molecule `CC1(C)CC[C@]2(C(=O)O)CC[C@]3(C)C(C(=O)C=C4[C@@]5(C)C=C(C(=O)O)C(=O)C(C)(C)[C@@H]5CC[C@]43C)C2C1` (some centres undefined) has an IC50 of 200 nM. With `COC(=O)C1=C[C@]2(C)C3=CC(=O)C4C5CC(C)(C)CC[C@]5(C(=O)O)CC[C@@]4(C)[C@]3(C)CC[C@H]2C(C)(C)C1=O` (some centres undefined) the IC50 was 100 nM. `COC(=O)[C@]12CCC(C)(C)CC1C1C(=O)C=C3[C@@]4(C)C=C(C(=O)O)C(=O)C(C)(C)[C@@H]4CC[C@@]3(C)[C@]1(C)CC2` (some centres undefined) was tested, and the IC50 was 0.8 nM. With `COC(=O)[C@]12CCC(C)(C)C[C@H]1[C@H]1C(=O)C=C3[C@@]4(C)C=C(C#N)C(=O)C(C)(C)[C@@H]4CC[C@@]3(C)[C@]1(C)CC2` [BARDOXOLONE METHYL] the IC50 was 0.1 nM. In the case of `COC(=O)[C@]12CCC(C)(C)CC1C1=CC(=O)[C@@H]3[C@@]4(C)C=C(C#N)C(=O)C(C)(C)[C@@H]4CC[C@@]3(C)[C@]1(C)CC2` (some centres undefined), the IC50 is reported as 20 nM. Molecule `CC1(C)CC[C@]2(C(=O)O)CC[C@]3(C)[C@H](C(=O)C=C4[C@@]5(C)C=CC(=O)C(C)(C)[C@@H]5CC[C@]43C)[C@@H]2C1` has an IC50 of 200 nM. For `CC1(C)CC[C@]2(C(=O)O)CC[C@]3(C)C(=CC[C@@H]4[C@@]5(C)C=CC(=O)C(C)(C)[C@@H]5CC[C@]43C)C2C1` (some centres undefined), the IC50 was 5600 nM. For `COC(=O)[C@]12CCC(C)(C)CC1C1=CC[C@@H]3[C@@]4(C)C=C(C#N)C(=O)C(C)(C)[C@@H]4CC[C@@]3(C)[C@]1(C)CC2` (some centres undefined), the IC50 was 700 nM. `CC1(C)CC[C@]2(C(=O)O)CC[C@]3(C)C(=CC[C@@H]4[C@@]5(C)C=C(Br)C(=O)C(C)(C)[C@@H]5CC[C@]43C)C2C1` (some centres undefined) showed an IC50 of 7300 nM. With `CC1(C)CC[C@]2(C(=O)O)CC[C@]3(C)C(=CC[C@@H]4[C@@]5(C)C=C(C(=O)O)C(=O)C(C)(C)[C@@H]5CC[C@]43C)C2C1` (some centres undefined) the IC50 was 70 nM. Molecule `CC1(C)CC[C@]2(C(=O)O)CC[C@]3(C)C(=C2C1)CC(=O)[C@@H]1[C@@]2(C)C=C(C#N)C(=O)C(C)(C)[C@@H]2CC[C@]13C` has an IC50 of 70 nM. For `CC1(C)CC[C@]2(C(=O)O)CC[C@]3(C)C(=CC[C@@H]4[C@@]5(C)C=C(Cl)C(=O)C(C)(C)[C@@H]5CC[C@]43C)C2C1` (some centres undefined), the IC50 was > 40000 nM. `COC(=O)C1=C[C@]2(C)[C@H]3CC=C4C5CC(C)(C)CC[C@]5(C(=O)OC)CC[C@@]4(C)[C@]3(C)CC[C@H]2C(C)(C)C1=O` (some centres undefined) showed an IC50 of 900 nM. Work on `C[C@]12CCC(=O)C=C1CCC1[C@@H]2[C@@H](O)C[C@@]2(C)[C@H]1CC[C@]2(O)C(=O)CO` (single isomer, unassigned) [HYDROCORTISONE] yielded an IC50 of 10 nM.
